According to publication PMC11079024, “Identification of a family of species-selective complex I inhibitors as potential anthelmintics” (Nature Communications, 2024):
“And” between values parts separate entries of the source, which are not always exact repeats. Identical values can stand only once. Like-named read-outs stand apart in the source and are kept apart here.

Tests used:
[1] = tested on: L1 wild-type C. elegans; conditions: for Relative Motility: relative to DMSO controls, single biological replicate; for Hit: active (hit) or inactive (non) at 50 μM in C. elegans assay of RQ-dependent metabolism
[2] = molecular target: C. elegans (N2) complex I (NADH:ubiquinone oxidoreductase) (Caenorhabditis elegans, UniProt P24887+Q93873+Q94360); test: biochemical; format: biochemical; conditions: for percent (%) in vitro complex I activity relative to solvent control: mitochondria
Protocol: Mitochondria were isolated from the following free-living nematode strains: C. elegans—N2, CB3474, ECA882, ECA917, ECA1075, ECA1080; C. briggsae—AF16; P. pacificus—PS312; and P. hermaphrodita—B178. With the exception of the P. hermaphrodita strain B178, adult worms of each strain were grown in bulk through liquid culture to obtain mitochondria in sufficient quantities. Due to poor growth in liquid media, mixed stage populations of P. hermaphrodita were washed off and collected from NGM plates seeded with OP50. The isolation of mitochondria from all free-living nematode strains followed the protocol previously outlined in Burns et al.[24]. In brief, a 1 L saturated culture of E. coli HB101 was concentrated 20-fold in 50 mL complete S-medium. ~500,000 L1 worms synchronized from an embryo preparation performed the day prior were added to the S-media/HB101 suspension and grown to adulthood over the course of 3.5 days at 20 °C with shaking at 165 rpm. Following growth, worms were collected in 10 ×15 mL conical tubes and washed 7 times in M9 buffer. Worm suspensions were then combined into a single 15 mL conical tube and diluted to a final volume of 15 mL with M9 buffer. 1 mL aliquots of worm suspension were then distributed to 15 × 1.5 mL screw-cap microcentrifuge tubes and were pelleted at 500 g for 1 min. Excess M9 was aspirated without disturbing the worm pellet. 600 μL ice-cold isolate buffer A (250 mM sucrose, 10 mM Tris (pH 7.5), 1 mM EDTA, 1 mM PMSF (freshly prepared)) and 300 μL cold glass beads were then added to each tube. Tubes were incubated on ice for 10 min, and the worms were then lysed by bead beating (6 x 30 s, with 1 min cooling intervals). Tubes containing worm lysate were centrifuged at 1,000 g for 10 min at 4 °C and the supernatant was transferred to 15 new microcentrifuge tubes on ice. The tubes were centrifuged a second time at 1,000 g for 10 min at 4 °C and the supernatant was once again transferred to 15 new microcentrifuge tubes on ice. These tubes were then centrifuged at 16,000 g for 10 min at 4 °C. The resulting mitochondrial pellet was washed twice by re-suspension in 300 μL of ice-cold isolate buffer B (250 mM sucrose, 10 mM Tris (pH 7.5), 1 mM EDTA). Following the final wash, isolation buffer was aspirated from each tube and the pellets were flash-frozen in ethanol/dry ice and stored at −80 °C until needed.
(§1) The enzymatic activities of individual ETC complexes (I-IV) were assessed spectrophotometrically in isolated mitochondria using a Varioskan LUX Multimode plate reader (ThermoFisher Scientific). Mitochondrial pellets previously isolated were thawed on ice and resuspended in ice-cold isolation buffer (250 mM sucrose, 10 mM Tris (pH 7.5), 1 mM EDTA). The BCA assay (Walker, 1994) was used to quantify the protein concentration of mitochondria suspensions; solutions were diluted to a concentration of 0.2 mg/mL for use in all assays. For the complex I assay, mitochondria pellets were freeze-thawed on ice three times to increase enzyme accessibility. […] 20 μL mitochondria suspension was then added/mixed with a pipette to initiate the reaction. Immediately following the addition of mitochondria, absorbance was measured (complex I and II: 600 nm; complex III and IV: 550 nm) in 30 s intervals over 15 min. Enzymatic activity was determined in each reaction by plotting absorbance versus time and calculating the slope of the curve during the initial linear phase of the reaction. […] Percent activity of each complex was calculated by dividing the enzyme-specific activity of each well by the enzyme-specific activity of the corresponding solvent controls.
(§2) Chemical solutions were prepared in complex I assay buffer composed of 25 mM KPi buffer (pH 7.5), 3 mg/mL bovine serum albumin (BSA), 80 μM NADH, 60 μM decylubiquinone, 160 μM DCIP, 2 μM antimycin A and 2 mM KCN.
For preliminary screens of hit compounds, compounds were screened at 100 μM; data are the average of at least three biological replicates.

[3] = molecular target: B. taurus (heart) complex I (Bos taurus, UniProt P03887+P17694+P42026); test: biochemical; format: biochemical; conditions: heart mitochondria; read-out: B. taurus Complex I IC50
Protocol: Six 8–10-week-old C57Bl/6 female mice (Charles River) were freshly dissected, and their livers and hearts collected into separate 1.5 mL microcentrifuge tubes. Organs were flash-frozen in liquid nitrogen and stored at −80 °C prior to use. The heart of a freshly slaughtered adult cow was obtained from a local abattoir (Peel Sausage Inc.), chopped into ~1-inch cubes and collected into 50 mL falcon tubes. Falcon tubes were flash-frozen in a container of dry ice and stored at −80 °C prior to use. Isolation of mitochondria from all mammalian tissue was carried out following the protocol described above. However, due to size, the initial homogenization of tissue was performed by 15 strokes in a dounce homogenizer (mouse heart) or with several 5 s pulses in small Nutribullet blender (cow heart). All mouse protocols for mouse care and dissection were reviewed and approved by the University of Toronto Animal Care Committee, in accordance with the Canadian Council on Animal Care.
as §1, §2
For preliminary screens of hit compounds, compounds were screened at 100 μM; data are the average of at least three biological replicates. The complex I and II activity assays were used for additional dose-response experiments. […] For dose responses of benzimidazole analogs, data represent the average of two biological replicates. For all other dose-responses, data represent the average of at least three biological replicates.

[4] = 50 μM, hit = relative motility below 0.25 3 hours after removal of KCN
[5] = 50 μM, worm motility 3 hours after removal of KCN
[6] = 50 μM, hit = relative motility below 0.25 3 hours after the removal of KCN
[7] = 50 μM, worm motility 3 hours after the removal of KCN (endpoint)
[8] = 50 μM, KCN survival assay, hit = relative motility below 0.25
[9] = read-out: percent (%) in vitro complex I activity relative to solvent control

Chain of C. elegans (N2) complex I (NADH:ubiquinone oxidoreductase) (Q94360 17-199): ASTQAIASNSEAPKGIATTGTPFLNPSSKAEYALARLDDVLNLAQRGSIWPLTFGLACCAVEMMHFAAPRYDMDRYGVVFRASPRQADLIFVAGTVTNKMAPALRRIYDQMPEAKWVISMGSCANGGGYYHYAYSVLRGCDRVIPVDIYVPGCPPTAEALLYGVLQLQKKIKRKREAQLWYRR
Chain of C. elegans (N2) complex I (NADH:ubiquinone oxidoreductase) (P24887 whole entry): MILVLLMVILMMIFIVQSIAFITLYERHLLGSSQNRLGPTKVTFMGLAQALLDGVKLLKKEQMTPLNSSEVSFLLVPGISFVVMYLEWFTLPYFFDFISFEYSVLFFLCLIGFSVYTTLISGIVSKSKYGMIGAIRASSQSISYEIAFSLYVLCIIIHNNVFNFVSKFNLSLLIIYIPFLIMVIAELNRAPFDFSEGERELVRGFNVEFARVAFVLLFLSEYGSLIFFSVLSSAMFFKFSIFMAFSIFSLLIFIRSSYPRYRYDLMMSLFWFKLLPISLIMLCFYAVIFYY
Chain of C. elegans (N2) complex I (NADH:ubiquinone oxidoreductase) (Q93873 31-482): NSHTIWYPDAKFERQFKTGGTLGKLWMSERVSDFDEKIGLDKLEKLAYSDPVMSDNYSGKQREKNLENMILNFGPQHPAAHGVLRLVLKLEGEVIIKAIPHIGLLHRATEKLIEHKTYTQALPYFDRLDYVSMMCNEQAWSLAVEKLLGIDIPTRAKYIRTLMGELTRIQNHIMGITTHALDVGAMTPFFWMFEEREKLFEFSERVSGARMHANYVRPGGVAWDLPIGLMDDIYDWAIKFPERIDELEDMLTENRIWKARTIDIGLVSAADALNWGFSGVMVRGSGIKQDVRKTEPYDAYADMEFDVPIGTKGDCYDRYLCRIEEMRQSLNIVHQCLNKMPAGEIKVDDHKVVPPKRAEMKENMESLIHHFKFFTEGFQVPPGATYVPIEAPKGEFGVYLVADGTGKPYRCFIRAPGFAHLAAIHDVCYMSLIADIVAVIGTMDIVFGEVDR
Chain of B. taurus (heart) complex I (P03887 whole entry): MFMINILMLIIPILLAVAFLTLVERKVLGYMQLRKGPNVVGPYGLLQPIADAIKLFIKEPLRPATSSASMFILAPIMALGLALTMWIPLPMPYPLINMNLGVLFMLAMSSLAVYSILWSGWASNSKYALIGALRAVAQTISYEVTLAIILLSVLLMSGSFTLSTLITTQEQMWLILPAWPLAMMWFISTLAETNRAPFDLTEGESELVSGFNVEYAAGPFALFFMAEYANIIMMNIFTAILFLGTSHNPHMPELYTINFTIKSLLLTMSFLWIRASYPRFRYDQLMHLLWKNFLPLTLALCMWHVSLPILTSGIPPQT
Chain of B. taurus (heart) complex I (P17694 34-463): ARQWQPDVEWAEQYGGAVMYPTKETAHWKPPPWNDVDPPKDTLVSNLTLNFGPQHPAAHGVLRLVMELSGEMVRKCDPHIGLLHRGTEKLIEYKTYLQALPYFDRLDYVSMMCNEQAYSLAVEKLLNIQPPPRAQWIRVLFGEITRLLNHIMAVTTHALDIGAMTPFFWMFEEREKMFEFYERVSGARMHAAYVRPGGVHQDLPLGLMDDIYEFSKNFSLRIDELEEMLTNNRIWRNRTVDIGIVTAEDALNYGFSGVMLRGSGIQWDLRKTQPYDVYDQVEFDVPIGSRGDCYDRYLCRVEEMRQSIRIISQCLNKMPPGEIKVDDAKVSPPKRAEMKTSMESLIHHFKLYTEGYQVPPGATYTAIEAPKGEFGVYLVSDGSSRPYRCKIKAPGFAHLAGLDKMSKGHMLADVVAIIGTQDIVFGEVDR
Chain of B. taurus (heart) complex I (P42026 38-216): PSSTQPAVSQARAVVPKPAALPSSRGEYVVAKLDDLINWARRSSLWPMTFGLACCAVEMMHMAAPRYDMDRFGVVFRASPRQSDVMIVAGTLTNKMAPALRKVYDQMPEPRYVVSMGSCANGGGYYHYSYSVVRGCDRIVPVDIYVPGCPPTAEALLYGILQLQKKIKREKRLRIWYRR

`C=CCn1c(NCc2ccccc2OC)nc2ccccc21` [Compound 7419109] was tested, and the “Screen "Hit"” value [1, 4] was “Y (hits were identified as compounds that reduced relative motility below 0.25 (75% reduction))” and the “Relative Motility” value [1, 5] was 0.078.
With `N#Cc1ccc(CSc2nc3ccc(Br)cc3[nH]2)cc1` [Compound 6726033] the “Screen "Hit"” value [1, 4] was “Y (hits were identified as compounds that reduced relative motility below 0.25 (75% reduction))” and the “Relative Motility” value [1, 5] was 0.140.
For `CCn1c(C)nc2cc(-c3ccccc3)ccc21` [Compound 5160815], the “Screen "Hit"” value [1, 6] was “Y (hits were identified as compounds that reduced relative motility below 0.25 (75% reduction))” and the “Relative Motility” value [1, 7] was 0.085.
`CCCc1nc2ccccc2n1Cc1ccc(C)cc1` [Compound 6607958] was tested, and the “Screen "Hit"” value [1, 8] was “Y (hits were identified as compounds that reduced relative motility below 0.25 (75% reduction))” and the “Relative Motility” value [1, 7] was 0.120.
For `Fc1cccc(F)c1CSc1nc2ccccc2[nH]1` [Compound 5616951], the “Screen "Hit"” value [1, 4] was “Y (hits were identified as compounds that reduced relative motility below 0.25 (75% reduction))” and the “Relative Motility” value [1, 5] was 0.130.
With `Nc1ccc(Oc2ccc(-c3nc4ccccc4[nH]3)cc2)cc1` [Compound 5747231] the “Screen "Hit"” value [1, 4] was “Y (hits were identified as compounds that reduced relative motility below 0.25 (75% reduction))” and the “Relative Motility” value [1, 5] was 0.130.
With `FC(OC(F)(F)F)c1nc2ccc(Cl)cc2[nH]1` (stereo not shown) [Compound 5119407] the Hit [1] was “non”.
In the case of `Cn1c(NCc2cccc(Br)c2)nc2ccccc21` [Compound 7766492], the “Screen "Hit"” value [1, 4] is reported as “Y (hits were identified as compounds that reduced relative motility below 0.25 (75% reduction))” and the “Relative Motility” value [1, 5] is reported as 0.130.
For `Cc1nc2cc(Cl)ccc2n1-c1ccccc1` [Compound 5119819], the “Screen "Hit"” value [1, 8] was “Y (hits were identified as compounds that reduced relative motility below 0.25 (75% reduction))” and the “Relative Motility” value [1, 7] was 0.230.
`CCOc1ccc(CNc2nc3ccccc3n2CC)cc1` [Compound 7758171] was tested, and the “Screen "Hit"” value [1, 4] was “Y (hits were identified as compounds that reduced relative motility below 0.25 (75% reduction))” and the “Relative Motility” value [1, 5] was 0.180.
With `CCC(C)c1ccccc1OCCn1cnc2ccccc21` (stereo not shown) [Compound 7925137] the “Screen "Hit"” value [1, 4] was “Y (hits were identified as compounds that reduced relative motility below 0.25 (75% reduction))” and the “Relative Motility” value [1, 5] was 0.220.
With `Brc1cc2nc[nH]c2c2ccccc12` [Compound 7873254] the “Screen "Hit"” value [1, 6] was “Y (hits were identified as compounds that reduced relative motility below 0.25 (75% reduction))”.
`c1ccc2c(c1)ncn2CCOc1ccc2c(c1)CCC2` [Compound 7925762] was tested, and the “Screen "Hit"” value ([1]; 50 μM compound, hit = relative motility below 0.25 3 hours after removal of KCN) was “Y (hits were identified as compounds that reduced relative motility below 0.25 (75% reduction))” and the “Relative Motility” value ([1]; 50 μM compound, worm motility 3 hours after removal of KCN) was 0.250.
For `c1ccc(Cn2c(-c3cncs3)nc3ccccc32)cc1` [Compound 7815425], the Hit [1] was “non”.
In the case of `CCCSc1ccc2nc(NC(=O)OC)[nH]c2c1` [Albendazole], the “percent (%) in vitro complex I activity relative to solvent control” value ([2]; 0.125 µM) is reported as 118.853% and 109.086% and 106.962%, the “percent (%) in vitro complex I activity relative to solvent control” value ([2]; 0.313 µM) is reported as 114.037% and 108.086% and 98.922% and the “percent (%) in vitro complex I activity relative to solvent control” value ([2]; 0.625 µM) is reported as 95.184% and 91.388% and 110.521%. The “percent (%) in vitro complex I activity relative to solvent control” value ([2]; 1.5 µM) was 96.241% and 104.509% and 111.883%, the “percent (%) in vitro complex I activity relative to solvent control” value ([2]; 3 µM) was 99.535% and 109.848% and 112.347% and the “percent (%) in vitro complex I activity relative to solvent control” value ([2]; 15 µM) was 97.910% and 114.555% and 112.953%. The “percent (%) in vitro complex I activity relative to solvent control” value ([2]; 37.5 µM) was 89.237% and 107.533% and 106.445%, the “percent (%) in vitro complex I activity relative to solvent control” value ([2]; 75 µM) was 100.906% and 79.462% and 105.930% and 106.268% and the remaining activity at 0.125 µM [2, 9] was 103%. For the same compound, the remaining activity at 0.313 µM [2, 9] was 104%, the remaining activity at 0.625 µM [2, 9] was 102% and the remaining activity at 1.5 µM [2, 9] was 109%. It also gave a remaining activity at 3 µM [2, 9] of 106%, a remaining activity at 15 µM [2, 9] of 106% and a remaining activity at 37.5 µM [2, 9] of 105%. For the same compound, the remaining activity at […] [2, 9] was 108%.
With `Cc1nn(C)c(Oc2ccccc2)c1C=NOCc1ccc(C(=O)OC(C)(C)C)cc1` [Fenpyroximate, reference compound] the IC50 ([2]; wild-type (N2) mitochondria, read-out: C. elegans Complex I IC50) was 21 nM and the IC50 [3] was 48 nM.
